Test results: patent US20220050096A1, “ANALYTE-SENSITIVE PROBES AND CONTACT LENS FOR DIAGNOSIS OF OCULAR PATHOLOGIES” (University Of Maryland, Baltimore, priority 2020, published 2022)
Like-named read-outs stand apart in the source and are kept apart here.

Tests used:
[1] = cited from earlier work
[2] = Intensity decay analysis of 1,8-ANS in various solvents and contact lenses; type: physicochemical
Procedure: (§1) Fluorescence Spectroscopic Measurements. Fluorescence intensities and intensity decays were measured using a Varian™ Eclipse 4 spectrofluorometer and a FluoTime300 instrument from PicoQuant™ (Berlin, Germany) and analyzed with the EasyTau™ software. The excitation source was a 473 nm laser diode with a repetition rate of 40 MHZ and a pulse width less than 100 ps. In other embodiments, the excitation source for SG-PL was at 495 nm from a Solea™ supercontinuum laser (PicoQuant™, Germany) and a 375 nm laser diode (PDL 375, PicoQuant™), a repetition rate of 40 MHz, and a pulse width less than 100 ps. Some intensity and lifetime measurements for SG-PL (as indicated) were performed using Alba V confocal fluorescence lifetime microscopy, FLIM (ISS, Urbana, Ill.), with excitation source of a 473 nm laser diode with a repetition rate of 40 MHz and a pulse width near 250 ps.
(§2) Intensity decays were measured at the emission maximum with the band of 10 to 20 nm, analyzed in terms of the multi-exponential model:
(§3) I(t)=Σαi exp(−t/ti) (equation 1)
(§4) where Σαi=1.0 and Σfi=1.0. The term fi=αi τi is proportional to the fractional contribution of each component to the total intensity decay. The term τi/Σαi τi is the fractional contribution to the steady state emission. Here, we use the amplitude-weighted lifetime given by
In polar solvents like water, the emission of many fluorophores is shifted to longer wavelengths. In addition, the intensities can be much lower and the lifetimes much shorter. […] Table 20, below. […]

[3] = cited from earlier work; remark: listed apart in the source
[4] = cited from earlier work; for Lifetime (ns), Ca bound form / Q, Ca bound form: bound form (in parentheses)
[5] = cited from earlier work; remark: listed apart in the source
[6] = Intensity decay of Prodan in various solvents and contact lenses; type: physicochemical
Procedure: as §1, §2, §3, §4
The observed spectral properties of 1,8-ANS in lens are consistent with 1,8-ANS properties noticed in a non-polar environment. The probe 6-propionyl-2-dimethylaminonaphthalene (Prodan™), which is also highly sensitive to local polarity, also was used. […] In MyDay™ lenses the emission maximum is at a shorter wavelength than that in acetonitrile.

[7] = Chloride quenching (Stern-Volmer) of SPQ-C3 in water; type: physicochemical
Procedure: Quenching by Chloride. Collisional quenching occurs, for example, when SPQ-C18 (also referred to as OD-MQB (N-Octadecyl-6-methoxyquinolinium bromide)) has a diffusion collision with a chloride ion. The intensities (I) and lifetimes (6) are analyzed using the Stern-Volmer equation,
where F0 and τ0 are the intensities and lifetimes in the absence of chloride, and K is the quenching constant and the inverse of the [Cl^−] needed for 50% quenching. For collisional quenching, the value of F0/F and τ0/τ are typically the same. In solution, in the absence of lenses, the value of K=kq τ0 can be used to calculate the biomolecular quenching constant kq and the quenching efficiency. In the lenses, the [Cl−] may not be the same as in the bulk solution, but kq in the lenses is estimated by assuming the same concentration of chloride around the SPQ moiety in the lenses and in bulk solutions.
This approach for SPQ-C18 in lenses is shown in both intensities and amplitude-weighted lifetimes (FIG. 35A and FIG. 35B). […] This behavior is different from SG-PL where the binding site can be saturated at high Na^+ concentrations. In contrast, quenching of OD-MQB, both intensity and lifetime, continue to decrease as the chloride concentration increased. The steady-state intensities and intensity decays can be used to calculate the bimolecular quenching constant kq. This value can be interpreted by comparison with quenching of a fluorophore in solution without any steric barriers. For this measurement the water-soluble fluorophore 1-propenyl-6-methoxyquinolinium bromide (SPQ-C3) was used. This is the same structure of SPQ-C18 but with a shorter, three carbon propenyl chain. The unquenched lifetime (τ0) of P-MQB was 26 ns, and the Stern-Volmer constant K was 140 M^−1. From these values, we calculated the kq of 5.4×10^9 M^−1 sec^−1 which is a typical value for efficient quenching.
Emission spectra and time-dependent decays were obtained (data not shown). Stern-Volmer plots were obtained in water and in a Stenfilcon A (Aspire™) contact lens by plotting the normalized intensities with respect to the added chloride concentrations.

[8] = cation-bound form (in parentheses)

## O=S(=O)(O)c1cc(O)c2ccc3c(S(=O)(=O)O)cc(S(=O)(=O)O)c4ccc1c2c34 [HPTS, 8-hydroxypyrene-1,3,6-trisulfonate]
[1]
  pKA: 7.3

## O=S(=O)(O)c1cccc2cccc(Nc3ccccc3)c12 [1,8-ANS, 1-anilino-8-naphthalene sulfonic acid]
[2]; 1-hexanol
  f1: 0.01
  f2: 0.99
  α1: 0.08
  α2: 0.92
  τ1: 1.77 ns
  τ2: 12.02 ns
  τf: 11.88 ns
  τα: 11.18 ns
[2]; 25/75 MeOH/H2O
  f1: 0.98
  f2: 0.02
  α1: 0.996
  α2: 0.004
  τ1: 0.52 ns
  τ2: 2.36 ns
  τf: 0.54 ns
  τα: 0.52 ns
[2]; 50/50 MeOH/H2O
  f1: 0.85
  f2: 0.15
  α1: 0.925
  α2: 0.075
  τ1: 1.09 ns
  τ2: 2.33 ns
  τf: 1.27 ns
  τα: 1.19 ns
[2]; Acetonitrile
  f1: 1.0
  α1: 1.0
  τ1: 7.04 ns
  τf: 7.04 ns
  τα: 7.04 ns
[2]; Biofinity ™ lens
  f1: 0.05
  f2: 0.95
  α1: 0.36
  α2: 0.64
  τ1: 0.40 ns
  τ2: 11.00 ns
  τf: 11.91 ns
  τα: 8.76 ns
[2]; EtOH
  f1: 0.02
  f2: 0.98
  α1: 0.05
  α2: 0.95
  τ1: 3.13 ns
  τ2: 8.83 ns
  τf: 8.74 ns
  τα: 8.57 ns
[2]; MyDay ™ lens
  f1: 0.20
  f2: 0.80
  α1: 0.421
  α2: 0.578
  τ1: 4.01 ns
  τ2: 12.79 ns
  τf: 11.97 ns
  τα: 9.70 ns

## COc1cc2cc(-c3ccc(C(=O)O)cc3C(=O)O)oc2cc1N1CCOCCOCCN(c2cc3oc(-c4ccc(C(=O)O)cc4C(=O)O)cc3cc2OC)CCOCC1 [SBF ?]
[3]; [8]
  Lifetime (ns), cation-bound form: 0.47 ns
  Q, cation-bound form: 0.087
[3]; free form
  Lifetime (ns), free form: 0.27 ns
  Q, free form: 0.645
[3]; read-out: K (mM), binding constant
  Kd: 3.8 mM

## O=c1ccc2nc3ccc(O)cc3oc-2c1 [Resorufin]
[1]; A form (value in parentheses)
  Lifetime (ns) τA: 0.45 ns
[1]; B form
  Lifetime (ns) τB: 2.92 ns
[1]
  pKA: ~5.7

## COc1cc(N(CC(=O)O)CC(=O)O)c2nc(COc3cc(C)ccc3N(CC(=O)O)CC(=O)O)ccc2c1 [Quin-2]
[4]
  Lifetime (ns), Ca bound form: 11.6 ns
  Q, Ca bound form: 0.14
  Lifetime (ns), Ca free form: 1.35 ns
  Q, Ca free form: 0.03

## COc1cc2cc(-c3ccc(C(=O)O)cc3C(=O)O)oc2cc1N1CCOCCOCCN(c2cc3oc(-c4ccc(C(=O)O)cc4C(=O)O)cc3cc2OC)CCOCCOCC1 [PBF ?]
[5]; [8]
  Lifetime (ns), cation-bound form: 0.72 ns
  Q, cation-bound form: 0.72
[5]; free form
  Lifetime (ns), free form: 0.47 ns
  Q, free form: 0.24

## O=C(O)c1ccccc1-c1c2cc(F)c(=O)cc-2oc2cc(O)c(F)cc12 [Oregon-Green]
[1]; A form (value in parentheses)
  Lifetime (ns) τA: 2.47 ns
  QA: 0.22
[1]; B form
  Lifetime (ns) τB: 4.37 ns
  QB: 0.65
[1]
  pKA: 1.8

## Cc1ccc(N(CC(=O)O)CC(=O)O)c(OCCOc2cc(-c3c4cc(Cl)c(=O)cc-4oc4cc(O)c(Cl)cc34)ccc2N(CC(=O)O)CC(=O)O)c1 [Pluo-3]
[4]
  Lifetime (ns), Ca bound form: 1.28 ns
  Lifetime (ns), Ca free form: 0.04 ns

## CCC(=O)c1ccc2cc(N(C)C)ccc2c1 [Prodan ™]
[6]; in 1-hexanol
  f1: 1.0
  α1: 1.0
  τ1: 3.40 ns
  τf: 3.40 ns
  τα: 3.40 ns
[6]; in Acetonitrile
  f1: 1.0
  α1: 1.0
  τ1: 3.38 ns
  τf: 3.38 ns
  τα: 3.38 ns
[6]; in Biofinity contact lens
  f1: 1.0
  α1: 1.0
  τ1: 3.98 ns
  τf: 3.98 ns
  τα: 3.98 ns
[6]; in EtOH
  f1: 1.0
  α1: 1.0
  τ1: 3.28 ns
  τf: 3.28 ns
  τα: 3.28 ns
[6]; in MyDay contact lens, 2 hr
  f1: 0.82
  f2: 0.18
  α1: 0.94
  α2: 0.07
  τ1: 3.81 ns
  τ2: 12.15 ns
  τf: 5.34 ns
  τα: 4.36 ns
[6]; in MyDay contact lens, 1 day
  f1: 0.67
  f2: 0.33
  α1: 0.87
  α2: 0.13
  τ1: 4.48 ns
  τ2: 14.41 ns
  τf: 7.76 ns
  τα: 5.80 ns
[6]; in Water
  f1: 0.494
  f2: 0.51
  α1: 0.740
  α2: 0.260
  τ1: 0.69 ns
  τ2: 2.02 ns
  τf: 1.36 ns
  τα: 1.04 ns

## CC=C[n+]1cccc2cc(OC)ccc21.[Br-] [SPQ-C3, 1-propenyl-6-methoxyquinolinium bromide]
[7]; in Water
  bimolecular quenching constant: 5.4e+09 M⁻¹ s⁻¹
[7]; in solution
  Stern-Volmer constant K: 140 M⁻¹
  unquenched lifetime (τ0): 26 ns
[7]; in solution, listed as P-MQB
  bimolecular quenching constant kq: 5.4e+09 M⁻¹ s⁻¹

## Cc1ccc(N(CC(=O)O)CC(=O)O)c(OCCOc2cc(-c3cc4ccc(C(=O)O)cc4[nH]3)ccc2N(CC(=O)O)CC(=O)O)c1 [Indo-1]
[4]
  Lifetime (ns), Ca bound form: 1.66 ns
  Q, Ca bound form: 0.50
  Lifetime (ns), Ca free form: 1.40 ns
  Q, Ca free form: 0.38

## CCN(CC)Cc1ccnc(-c2cc(CN(CC)CC)ccn2)c1.[Ru+2].c1ccc(-c2ccccn2)nc1.c1ccc(-c2ccccn2)nc1 [[Ru(deabpy)(bpy)2]^2+]
[1]; A form (value in parentheses)
  Lifetime (ns) τA: 235 ns
[1]; B form
  Lifetime (ns) τB: 380 ns
[1]
  pKA: 7.5

## Cc1ccc(N(CC(=O)O)CC(=O)O)c(OCCOc2cc3cc(-c4ncc(C(=O)O)o4)oc3cc2N(CC(=O)O)CC(=O)O)c1 [F ? -2]
[4]
  Lifetime (ns), Ca bound form: 1.68 ns
  Q, Ca bound form: 0.49
  Lifetime (ns), Ca free form: 1.09 ns
  Q, Ca free form: 0.23
